Columns and labels:
Format in all cases: functional
Mythimna separata [1] = experiment: Insecticidal activity against fourth instar larvae of Mythimna separata (Oriental armyworm) in compound treated corn leaves assessed as mortality at 5 mg/kg by foliar application
Mythimna separata [2] = experiment: Insecticidal activity against fourth instar larvae of Mythimna separata (Oriental armyworm) in compound treated corn leaves assessed as mortality at 10 mg/kg by foliar application
Mythimna separata [3] = experiment: Insecticidal activity against fourth instar larvae of Mythimna separata (Oriental armyworm) in compound treated corn leaves assessed as mortality at 200 mg/kg by foliar application
Mythimna separata [4] = experiment: Insecticidal activity against fourth instar larvae of Mythimna separata (Oriental armyworm) in compound treated corn leaves assessed as mortality at 500 mg/kg by foliar application
Mythimna separata [5] = experiment: Insecticidal activity against fourth instar larvae of Mythimna separata (Oriental armyworm) in compound treated corn leaves assessed as mortality at 0.2 mg/kg by foliar application
Mythimna separata [6] = experiment: Insecticidal activity against fourth instar larvae of Mythimna separata (Oriental armyworm) in compound treated corn leaves assessed as mortality at 0.5 mg/kg by foliar application
Mythimna separata [7] = experiment: Insecticidal activity against fourth instar larvae of Mythimna separata (Oriental armyworm) in compound treated corn leaves assessed as mortality at 100 mg/kg by foliar application
Mythimna separata [8] = experiment: Insecticidal activity against fourth instar larvae of Mythimna separata (Oriental armyworm) in compound treated corn leaves assessed as mortality at 50 mg/kg by foliar application
Mythimna separata [9] = experiment: Insecticidal activity against fourth instar larvae of Mythimna separata (Oriental armyworm) in compound treated corn leaves assessed as mortality at 25 mg/kg by foliar application
Mythimna separata [10] = experiment: Insecticidal activity against fourth instar larvae of Mythimna separata (Oriental armyworm) in compound treated corn leaves assessed as mortality at 1 mg/kg by foliar application
Mythimna separata [11] = experiment: Insecticidal activity against fourth instar larvae of Mythimna separata (Oriental armyworm) in compound treated corn leaves assessed as mortality at 0.1 mg/kg by foliar application

SMILES	mortality at 5 mg/kg (Mythimna separata [1]) [%]	mortality at 10 mg/kg (Mythimna separata [2]) [%]	mortality at 200 mg/kg (Mythimna separata [3]) [%]	mortality at 500 mg/kg (Mythimna separata [4]) [%]	mortality at 0.2 mg/kg (Mythimna separata [5]) [%]	mortality at 0.5 mg/kg (Mythimna separata [6]) [%]	mortality at 100 mg/kg (Mythimna separata [7]) [%]	mortality at 50 mg/kg (Mythimna separata [8]) [%]	mortality at 25 mg/kg (Mythimna separata [9]) [%]	mortality at 1 mg/kg (Mythimna separata [10]) [%]	mortality at 0.1 mg/kg (Mythimna separata [11]) [%]
CC(C)(C)OC(=O)N(C(=O)NC(=O)c1c(F)cccc1F)c1ccc(Cl)cc1	95	100	100	100	0	0	100	100	100	5	
CCOC(=O)N(C)SN(C(=O)NC(=O)c1c(F)cccc1F)c1ccc(C(F)(F)F)cc1	100	100	100	100	85	95	100	100	100	100	0
CN(SN(C(=O)NC(=O)c1c(F)cccc1F)c1ccc(C(F)(F)F)cc1)C(=O)OC(C)(C)C	100	100	100	100	35	100	100	100	100	100	0
CN(SN(C(=O)NC(=O)c1c(F)cccc1F)c1ccc(Cl)cc1)C(=O)OCc1ccccc1	100	100	100	100	0	55	100	100	100	85	0
CC(C)(C)OC(=O)N(C(=O)NC(=O)c1c(F)cccc1F)c1ccc(C(F)(F)F)cc1	75	100	100	100	0	0	100	100	100	0	
O=C(NC(=O)N(C(=O)OCc1ccccc1)c1ccc(C(F)(F)F)cc1)c1c(F)cccc1F	0	0	30	100	0	0	0	0	0	0	
O=C(NC(=O)N(C(=O)OCc1ccccc1)c1ccc(Cl)cc1)c1c(F)cccc1F	0	0	100	100	0	0	70	0	0	0	
O=C(NC(=O)c1c(F)cccc1F)Nc1ccc(Cl)cc1 [DIFLUBENZURON]	100	100	100	100	45	100	100	100	100	100	0
CCOC(=O)N(C)SN(C(=O)NC(=O)c1c(F)cccc1F)c1ccc(Cl)cc1	100	100	100	100	5		100	100	100	20	0
CCOC(=O)N(C(=O)NC(=O)c1c(F)cccc1F)c1ccc(C(F)(F)F)cc1	0	0	100	100	0	0	100	100	5	0	
CCOC(=O)N(C(=O)NC(=O)c1c(F)cccc1F)c1ccc(Cl)cc1	0	0	100	100	0	0	100	100	100	0	
